Counter-ions that a name gives are not always drawn.

In patent publication US20120115865A1, “New Salts of an Indole Derivative and Their Use in Medicine” (priority 2006, published 2012) one finds moisture uptake data, which are given here for seven molecules.

This data set can be described thus: Hygroscopicity by Dynamic Vapour Sorption Analysis (DVS). The class given is physicochemical. Conditions: 25° C. The procedure:
Dynamic Vapour Sorption Analysis (DVS)
The studies were undertaken using Dynamic Vapour Sorption Appararatus (DVS, Surface Measurement Systems, London UK). The apparatus consists of Cahn micobalance housed inside a temperature-controled cabinet. All experiments were performed at 25° C. The DVS was used to characterize the moisture uptake (% w/w) at different relative humidities (RH). Samples (5-10 mg) were weighed directly into the DSV sample cup and exposed to different relative humidities.

As to `N#Cc1ccc2[nH]c(O)c(-c3ccc(CN4CCOCC4)cn3)c2c1.O=C(O)/C=C\C(=O)O` [Maleate, 2-hydroxy-3-[5-(morpholin-4-ylmethyl)pyridin-2-yl]1H-indole-5-carbonitrile maleate], the moisture uptake is 1.7 % w/w (relative humidity 40%), 2.2 % w/w (relative humidity 60%) and 2.7 % w/w (relative humidity 80%).

For `CS(=O)(=O)O.N#Cc1ccc2[nH]c(O)c(-c3ccc(CN4CCOCC4)cn3)c2c1` [Mesylate, 2-Hydroxy-3-[5-(morpholin-4-ylmethyl)pyridin-2-yl]1H-indole-5-carbonitrile mesylate], the moisture uptake reads like this: (relative humidity 40%) 0.7 % w/w; (relative humidity 60%) 1.1 % w/w; (relative humidity 80%) 1.6 % w/w.

As to `N#Cc1ccc2[nH]c(O)c(-c3ccc(CN4CCOCC4)cn3)c2c1.O=C(O)/C=C/C(=O)O` [Fumarate, 2-hydroxy-3-[5-(morpholin-4-ylmethyl)pyridin-2-yl]1H-indole-5-carbonitrile fumarate], the moisture uptake reads like this: (relative humidity 40%) 3.8 % w/w; (relative humidity 60%) 4.5 % w/w; (relative humidity 80%) 5.1 % w/w.

`N#Cc1ccc2[nH]c(O)c(-c3ccc(CN4CCOCC4)cn3)c2c1.O=P(O)(O)O` [Phosphate, 2-hydroxy-3-[5-(morpholin-4-ylmethyl)pyridin-2-yl]1H-indole-5-carbonitrile phosphate]: the moisture uptake came out at 4.1 % w/w (relative humidity 40%), 6.6 % w/w (relative humidity 60%) and 10.8 % w/w (relative humidity 80%).

“2-Hydroxy-3-[5-(morpholin-4-ylmethyl)pyridin-2-yl]1H-indole-5-carbonitrile edisylate” returned a moisture uptake (relative humidity 40%) of 5.1 % w/w, a moisture uptake (relative humidity 60%) of 6.6 % w/w and a moisture uptake (relative humidity 80%) of 8.2 % w/w.

As to `CCS(=O)(=O)O.N#Cc1ccc2[nH]c(O)c(-c3ccc(CN4CCOCC4)cn3)c2c1` [Esylate, 2-Hydroxy-3-[5-(morpholin-4-ylmethyl)pyridin-2-yl]1H-indole-5-carbonitrile esylate], the moisture uptake worked out at 0.5 % w/w (relative humidity 40%), 0.8 % w/w (relative humidity 60%) and 1.2 % w/w (relative humidity 80%).

For `N#Cc1ccc2[nH]c(O)c(-c3ccc(CN4CCOCC4)cn3)c2c1` [HCl, 2-hydroxy-3-[5-(morpholin-4-ylmethyl)pyridin-2-yl]1H-indole-5-carbonitrile, reference compound], the moisture uptake is 8.7 % w/w (relative humidity 40%), 11.5 % w/w (relative humidity 60%) and 13.0 % w/w (relative humidity 80%).
